Results reported in patent US9717751B2, “Chitin or derivatives thereof for the prevention and/or treatment of parasitoses” (LESAFFRE ET COMPAGNIE, priority 2012, dated 2017).
Values joined by “and” are separate entries in the source; they are usually repeats but may differ in a detail not shown here. Identical values can stand only once. Counter-ions that a name gives are not always drawn.

What was measured:
C. parvum [1] = assay: Preincubation test: C. parvum oocysts preincubated 24 h with compound, then infection of HCT-8 cells; type: cell-based, Cryptosporidium parvum; details: preincubation 24 h, 500 μg/ml; for viability at 500 µg/mL: Cryptosporidium parvum, T+ = 100, read-out: % of viable sporozoites; for Number of sporozoites: single tests; for Number of sporozoites, Mean: triplicate mean
Experimental: (§1) Two cell models were tested: HCT-8 cells (human ileocecal adenocarcinoma cells) and Caco-2 cells (human colonic adenocarcinoma cells). The Iowa Cryptosporidium parvum strain (Waterborne inc., New Orleans, La., USA) is used for the tests. The infection is carried out on cells at 70%-80% confluence, cultured in a monolayer on collagen-coated coverslips in 24-well plates. The supernatant of the cells in a monolayer is replaced with 3 ml of culture medium to which 1×10^4 C. parvum oocysts are added. After incubation for 3 hours in a humid incubator at 37° C. and 5% CO2, the supernatant is replaced with 3 ml of culture medium and incubated for 48 h in a humid incubator at 37° C., 5% CO2 and 80% humidity. In each well of a plate, 1×10^4 oocysts are brought into contact with 500 μg/ml of paromomycin, chitosan or NAG. The plates are incubated for 24 h in a humid incubator at 37° C. and 5% CO2. The cells are then infected as indicated above. The intracellular oocysts are stained after fixing the cells with methanol. The labeling is carried out using a specific conjugated polyclonal antibody (Sporo-Glo 20×Waterborne inc., New Orleans, La., USA). The coverslips are then mounted on slides. The intracellular oocysts are counted with a fluorescence microscope. On each slide, 6×50 fields randomly chosen over the entire surface area of the slide are counted. The results obtained are a triplicate mean. The data are analyzed by ANOVA. A p-value of less than or equal to 0.05 is considered to be significant. The tested compounds are incubated for 24 h with C. parvum oocysts before the in vitro infection at a dose of 500 μg/ml.

C. parvum [2] = assay: Preincubation test: C. parvum oocysts preincubated 24 h with compound, then infection of Caco-2 cells; type: cell-based, Cryptosporidium parvum; details: preincubation 24 h, 500 μg/ml; for viability at 500 µg/mL: Cryptosporidium parvum, T+ = 100, read-out: % of viable sporozoites; for Number of sporozoites, Mean: triplicate mean
Experimental: as §1

C. parvum [3] = assay: Direct test: compound added to C. parvum-infected HCT-8 cells; type: cell-based, Cryptosporidium parvum; details: direct addition, 500 μg/ml; for viability at 500 µg/mL: Cryptosporidium parvum, T+ = 100, read-out: % of viable sporozoites; for Number of sporozoites: single tests; for Number of sporozoites, Mean: triplicate mean
Experimental: (§2) Two cell models were tested: HCT-8 cells (human ileocecal adenocarcinoma cells) and Caco-2 cells (human colonic adenocarcinoma cells).
(§3) The Iowa Cryptosporidium parvum strain (Waterborne inc., New Orleans, La., USA) is used for the tests.
(§4) The infection is carried out on cells at 70%-80% confluence, cultured in a monolayer on collagen-coated coverslips in 24-well plates.
(§5) The supernatant of the cells in a monolayer is replaced with 3 ml of culture medium to which 1×10^4 C. parvum oocysts are added. After incubation for 3 hours in a humid incubator at 37° C. and 5% CO2, the supernatant is replaced with 3 ml of culture medium and incubated for 48 h in a humid incubator at 37° C., 5% CO2 and 80% humidity.
(§6) The culture medium of the infected cells is replaced with 1 ml of culture medium to which the test compound is then added, at a final concentration of 500 μg/ml.
(§7) The plates are incubated for 48 h in a humid incubator at 37° C. and 5% CO2.
(§8) The intracellular oocysts are stained after fixing the cells with methanol. The labeling is carried out using a specific conjugated polyclonal antibody (Sporo-Glo 20×Waterborne inc., New Orleans, La., USA). The coverslips are then mounted on slides. The intracellular oocysts are counted with a fluorescence microscope.
(§9) On each slide, 6×50 fields randomly chosen over the entire surface area of the slide are counted.
(§10) The results obtained are a triplicate mean. The data are analyzed by ANOVA. A p-value of less than or equal to 0.05 is considered to be significant.
(§11) The various compounds are tested at a dose of 500 μg/ml.

C. parvum [4] = assay: Direct test: compound added to C. parvum-infected Caco-2 cells; type: cell-based, Cryptosporidium parvum; details: direct addition, 500 μg/ml; for viability at 500 µg/mL: Cryptosporidium parvum, T+ = 100, read-out: % of viable sporozoites; for Number of sporozoites: single tests; for Number of sporozoites, Mean: triplicate mean
Experimental: as §2, §3, §4, §5, §6, §7, §8, §9, §10, §11

C. parvum [5] = assay: Effect of the compounds on C. parvum development in CMT-93 murine cells; type: cell-based, Cryptosporidium parvum; details: CMT-93 cells, 18 μg/ml
Experimental: The C. parvum oocysts used were isolated from feces (stools) of calves that had been experimentally infected (by INRA [French National Institute for Agricultural Research] of Tours).
The tests are carried out on cells of the CMT-93 murine line (mycoplasma-free) cultured in complete medium comprising 10% of FCS (Fetal Calf Serum).
Interferon-γ at 10 ng/ml is used as a positive control. This is because partial inhibition of C. parvum multiplication in enterocytes under the action of this cytokine has been described.
The cells of the CMT-93 line are seeded in a proportion of 3.6×10^5 cells per well.
The test compounds are added after 8 h.
After 24 h, the cells are lysed with trypsin and labeled with a fluorescent lectin (VVL-FITC), in order to be able to find the infected cells with a fluorescence microscope. The number of infected cells is found manually.

CMT-93 cells = assay: Chemokine production by epithelial cells (quantitative RT-PCR); type: cell-based, murine; details: 24 h incubation
Experimental: The tests are carried out on cells of the CMT-93 murine line (mycoplasma-free) cultured in complete medium comprising 10% of FCS (Fetal Calf Serum) or on dendritic cells derived from bone marrow (immature) in the presence of GM-CSF (Granulocyte Macrophage Colony Stimulating Factor) added regularly to the culture for 9 days. Chemokine production by the epithelium or other intestinal cells is important for the recruitment of the inflammatory cells required for protection against cryptosporidiosis in newborns. Chemokine production by epithelial cells is measured by quantitative RT-PCR (quantification by incorporation of Sybr green) after incubation of CMT-93 cells with the various compounds for 24 h.

Compound	viability at 500 µg/mL (C. parvum [1]) [%]	reduction of parasite development (C. parvum [1]) [%]	Number of sporozoites, Mean (C. parvum [1])	viability at 500 µg/mL (C. parvum [2]) [%]	reduction of parasite development (C. parvum [2]) [%]	Number of sporozoites, Mean (C. parvum [2])	viability at 500 µg/mL (C. parvum [3]; 48 h) [%]	effectiveness compared with paromomycin (C. parvum [3])	reduction in parasite development (C. parvum [3]) [%]	Number of sporozoites (C. parvum [3]; 48 h)	Number of sporozoites, Mean (C. parvum [3]; 48 h)	viability at 500 µg/mL (C. parvum [4]; 48 h) [%]	reduction in parasite development (C. parvum [4]) [%]	Number of sporozoites, Mean (C. parvum [4]; 48 h)	reduction of parasite multiplication compared with the nontreated control (C. parvum [5]) [%]	further results
CC(=O)N[C@H]1C(O)O[C@H](CO)[C@@H](O)[C@@H]1O (stereo partly drawn) [NAG, N-acetylglucosamine]	0.99	99.0	11	2.61	97.4	30	11.6	more effective than paromomycin	88.4	172 and 131 and 99	134	64.8	35.2	571	43	Number of sporozoites (C. parvum [1]): 12 and 14 and 7; Number of sporozoites (C. parvum [2]; single tests): 21 and 39 and 31; Number of sporozoites (C. parvum [4]; 48 h): 656 and 485 and 337; production of chemokines CXCL10 and CCL20, ranking of the products (CMT-93 cells): most effective
NC[C@@H]1O[C@H](O[C@H]2[C@@H](O)[C@H](O[C@@H]3[C@@H](O)[C@H](N)C[C@H](N)[C@H]3O[C@H]3O[C@H](CO)[C@@H](O)[C@H](O)[C@H]3N)O[C@@H]2CO)[C@H](N)[C@@H](O)[C@@H]1O [Paromomycin, paromomycin sulfate, reference compound]	0.53	99.5	6	2.87	97.1	33	55.4	–	44.6	208 and 178 and 187	191	66.4	33.6	592	–	–
chitosan hydrochloride	–	95.7	47	–	97.6	28	–	more effective than paromomycin	93.6	–	73	–	68	282	31	% of viable sporozoites (C. parvum [1]; T+ = 100): 4.3%; Number of sporozoites (C. parvum [1]; hydrochloride): 47 and 52 and 37; % of viable sporozoites (C. parvum [2]; T+ = 100): 2.44%; % of viable sporozoites (C. parvum [3]; 48 h, T+ = 100): 6.4%; Number of sporozoites (C. parvum [3]; 48 h, hydrochloride): 90 and 66 and 64; effectiveness compared with paromomycin (C. parvum [4]): more effective; % of viable sporozoites (C. parvum [4]; 48 h, T+ = 100): 32.0%; Number of sporozoites (C. parvum [4]; 48 h, hydrochloride): 372 and 199 and 276
poly-(N-deacetyl-D-glucosamine) [insoluble chitosan]	–	–	–	–	–	–	–	–	–	–	–	–	–	–	–	infected cells (C. parvum [5]; nontreated control 50% of infected cells): approximately 40%
